From US8431530B2, “Compositions and methods for treating aids or cancer by inhibiting the secretion of microparticles” (priority 2009, dated 2013)

Tests used:
MDA-MB-231 cells = experiment: Exosome (AChE marker) secretion from tumor cells, immunoblot; assay type: cell-based, human; conditions: MDA-MB-231, Chariot transfection, 48 hr, immunoblot densitometry normalized to tubulin; dose dependency in both compartments
Text: FIG. 1 is a composite of diagrams showing the synthetic HIV-1 NefSMRwt peptide (antagonist) and HIV-1 NefSMRmt peptide (negative control) (panel A); the vector constructs expressing HIV-1 NefSMRwt peptide fused with GFP or HIV-1 NefSMRmt peptide fused with GFP (panel B); and the amount of acetylcholinesterase, a marker for exosomes, in MDA-MB-231 cells transfected with either HIV-1 NefSMRwt peptide (panelC) or SMRmt peptide (panel D). Untransfected MDA-MB-231 cells were used as negative controls. The cells were cultured for 48 hours in serum-free medium. One ml of supernatant was spun at 400,000×g. Supernatant pellets or set volume of cell lysate were run on PAGE, blotted, and probed with anti-AchE mAb (Acetylcholinesterase—1:1000 dilution; marker for exosomes). The cell lyasates were reprobed with anti-Tubulin mAb (1:4000). Bands were measured by densitometry, normalized against intracellular tubulin. Data shown here as percent relative to the untransfected control.
MDA-MB-231 cells were derived from human breast adenocarcinoma and […], and were obtained from the American Type Culture Collection (Manassas, Va.). […]
Pellets were resuspended in 1×SDS-PAGE loading buffer, separated by SDS-PAGE. […] Protein bands were detected by Western Blotting Luminol Reagent (Santa Cruz Biotechnology, Inc., Santa Cruz, Calif.). […]

[1] = system: NefGFP release from HEK293 cells; experiment: Nef-GFP co-transfection secretion assay, GFP fluorescence of supernatant; assay type: cell-based; conditions: HEK293, 0.5 μg Nef-GFP + 0.5 μg peptide, Chariot, 48 h; relative to NefGFP+sM1 (100%)
Description: Therefore, a set of co-transfection experiments were performed. HEK293 cells were co-transfected with 0.5 μg of pQBI-HIV Nef-GFP (expresses wild type Nef protein) and either 0.5 μg of HIV-1 Nef SMRwt or SMRmut peptide or sM1 peptide (a totally random control peptide, ALAETCQNAWA (SEQ ID NO: 7)) with Chariot. Briefly, the wild-type Nef-GFP clone and the SMR peptides were complexed with Chariot reagent for 30 minutes at RT. The DNA/peptide/Chariot complex was added to HEK293 cells in serum-free media, and the cells were plated. Following incubation for 2 hours at 37° C., media with serum was added to the dish, and the cells were incubated at 37° C. for 48 h. The media was then collected and assayed for secretion using a spectrofluorimeter. The conditioned supernatants from these cultures were assayed for GFP fluorescence by plate reader.

R7 in Jurkat cells = experiment: p24 ELISA of supernatant after R7 co-transfection; assay type: cell-based, HIV
Description: Jurkat cells, HEK293 cells, THP-1 monocytes and U937 monocytes were co-transfected with either R7 […] Nef SMR wt (antagonist) or with R7+Nef SMR mt (nonfunctional antagonist) by Chariot™ Kit. The transfection efficiency was 30-40%.
R7 is a clone containing the viral genome. Transfection into cells allows expression of the viral genome and ultimately virion formation and release. The amount of virion production in the extracellular supernatant is measured through p24 protein (viral protein).
At 2 hours, 3 days, 6 days, 9 days, 13 days, 15 days, 17 days, 20 days, 23 days, 27 days and 36 days post-transfection, 0.5 ml supernatant were collected from each plate, mixed with 0.5 ml fresh media and analyzed by p24 ELISA assay. 1.5 ml of supernatant were collected from each plate and spun in a TLA100 rotor at 400,000×g for 1 hour to create the pellets. The pellets were used for Western blot analysis with p24 mAb and Nef mAb.

[2] = system: HIV-1 Nef-GFP secretion, cell line H; experiment: HIV-1 Nef-GFP induced secretion, fluorescent plate reader assay; assay type: cell-based; conditions: for SMRmt/SMRwt ratio of secretion: HIV-1 Nef-GFP; for Increase in Secretion (relative to untransfected cells), exp condition/UT: HIV-1 Nef-GFP (sM1 column head prints GFP/sM1)

Question: Which results are given for “H2N-AGFPVAAAGFPVDYKDDDDK-OH (H-AGFPVAAAGFPVDYKDDDDK-OH) [SMRmt]”?
Answer: AChE (exosome marker) intracellularly and in the cell supernatant (MDA-MB-231 cells): no effect; release of NefGFP into the extracellular supernatant (GFP fluorescence) [1]: no effect; time post transfection at which p24 concentration increased (R7 in Jurkat cells): 3 days; SMRmt/SMRwt ratio of secretion [2]: 24.8y; Increase in Secretion (relative to untransfected cells), exp condition/UT [2]: 57.04x

Question: With H-VGFPVAAVGFPVDYKDDDDK-OH [SMRwt] as the substance, how does the “AChE (exosome marker) intracellularly and in the cell supernatant” value (MDA-MB-231 cells) read?
Answer: The value was “knocked down AChE intracellularly and in the cell supernatant”.

Question: What about the “release of NefGFP into the extracellular supernatant (GFP fluorescence)” value [1] of the same substance?
Answer: Its value is “antagonizes the release of NefGFP into the extracellular supernatant”.

Question: What about the “time post transfection at which p24 concentration increased” value (R7 in Jurkat cells) of the same substance?
Answer: The value was 13 days.

Question: What about the “SMRmt/SMRwt ratio of secretion” value [2] of the same substance?
Answer: The value was 1.0y.

Question: And the “Increase in Secretion (relative to untransfected cells), exp condition/UT” value [2]?
Answer: Its value is 2.3x.
